From patent US12466829B2, “Spirocyclic piperidine melanocortin subtype-2 receptor (MC2R) antagonists and uses thereof” (Crinetics Pharmaceuticals, Inc., priority 2019, dated 2025) come the findings set out here.

Where only a bound is given, the exact number is not on record here.

T1 sequence (Q01718 whole entry): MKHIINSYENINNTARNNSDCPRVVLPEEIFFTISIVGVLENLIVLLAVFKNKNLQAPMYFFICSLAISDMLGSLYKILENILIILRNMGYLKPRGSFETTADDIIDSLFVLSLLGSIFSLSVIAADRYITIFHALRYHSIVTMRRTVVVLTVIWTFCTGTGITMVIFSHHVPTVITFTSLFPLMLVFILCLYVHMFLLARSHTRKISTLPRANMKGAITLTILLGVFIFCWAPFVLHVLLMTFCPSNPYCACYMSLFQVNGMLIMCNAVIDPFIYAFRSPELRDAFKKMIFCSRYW
T1 sequence (Q8TCY5 whole entry partner): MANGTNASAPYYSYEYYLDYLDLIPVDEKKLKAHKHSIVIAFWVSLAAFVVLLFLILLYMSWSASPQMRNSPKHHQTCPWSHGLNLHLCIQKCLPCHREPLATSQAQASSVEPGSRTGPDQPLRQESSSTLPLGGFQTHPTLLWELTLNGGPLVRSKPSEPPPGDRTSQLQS

The assay has as its target T1, hMC2 receptor (Homo sapiens, UniProt Q01718).
T1 construct: host or cells: CRE-bla-CHO-K1 cells
Put plainly: hMC2 membrane binding assay ([125I]ACTH (1-39) Tyr23, SPA). The conditions noted are these: crude membranes of CRE-bla-CHO-K1 cells expressing hMC2 receptor and hMRAP; 0.2 nM [125I]ACTH (1-39) Tyr23; 1.5 hours at room temperature; read-out: MC2R binding potency. On the procedure: Crude membrane fractions are prepared from CRE-bla-CHO-K1 cells stably expressing hMC2 receptor and hMRAP accessory protein (Thermo Fisher). The cells are grown to 85-100% confluence on standard tissue culture dishes in GlutaMax DMEM growth media (Gibco) with following additives: 10% dialyzed FBS (Gemini), 0.1 mM NEAA (Gibco), 25 mM HEPES (Gibco), 5 μg/mL blasticidin (Goldbio), 100 μg/mL zeocin (Invitrogen), 600 μg/mL hygromycin (Goldbio). To prepare membranes, cells are scraped and collected in 1× Dulbecco's phosphate buffered saline (Corning) and then pelleted at 1000 RPM's. The cell pellet is reconstituted in membrane preparation buffer (20 mM HEPES, 6 mM MgCl2 and 1 mM EGTA, protease inhibitor tablets (Pierce) adjusted to pH 7.4), homogenized using a dounce homogenizer, and the resulting membrane fraction is pelleted by centrifugation at 12,000 RPM's. The membrane pellet is resuspended in membrane preparation buffer, snap freezed and stored at −80° C. for later use.
The hMC2 membrane binding assay utilizes the following components: radiolabel [^125I]ACTH (1-39) Tyr23 (PerkinElmer), wheatgerm agglutinin coated PVT SPA beads (PerkinElmer), crude hMC2R membranes, and compounds. Briefly hMC2R membranes are incubated with SPA beads in binding assay buffer (50 mM HEPES, 5 mM MgCl2, 1 mM CaCl2), 0.2% BSA, protease inhibitor tablets (Pierce) adjusted to pH7.4) prior to assay initiation. […] Assay plates are read using a Top Count NXT and Ki values for compounds are determined using a GraphPad Prism 6 non-linear regression analysis.
As for `CCOc1ncccc1-c1ccc2c(c1)N(C(=O)CCN)CC21CCN(c2ccc(Cl)cc2C(F)(F)F)CC1` [1-22, 3-amino-1-{1′-[4-chloro-2-(trifluoromethyl)phenyl]-6-(2-ethoxypyridin-3-yl)-1,2-dihydrospiro[indole-3,4′-piperidin]-1-yl}propan-1-one], the Ki was in the range of 10 to 100 nM. Under `N#Cc1cc(C(F)(F)F)ccc1N1CCC2(CC1)CN(C(=O)CCN)c1cc(-c3ccccc3CO)ccc12` [1-35, 2-[1-(3-aminopropanoyl)-6-[2-(hydroxymethyl)phenyl]-1,2-dihydrospiro[indole-3,4′-piperidin]-1′-yl]-5-(trifluoromethyl)benzonitrile] stands 10 to 100 nM.

`CCOc1ncccc1-c1ccc2c(c1)N(C(=O)CN)CC21CCN(c2ccc(C(F)(F)F)cc2C#N)CC1` [1-1, 2-[1-(2-aminoacetyl)-6-(2-ethoxypyridin-3-yl)-1,2-dihydrospiro[indole-3,4′-piperidin]-1′-yl]-5-(trifluoromethyl)benzonitrile]: the Ki was in the range of 10 to 100 nM. With `CCOc1ccc(N2CCC3(CC2)CN(C(=O)CCN)c2cc(-c4cccnc4OCC)ccc23)c(C#N)n1` [1-44, 3-[1-(3-aminopropanoyl)-6-(2-ethoxypyridin-3-yl)-1,2-dihydrospiro[indole-3,4′-piperidin]-1′-yl]-6-ethoxypyridine-2-carbonitrile], the Ki was in the range of 10 to 100 nM. Under `CCOc1ncccc1-c1ccc2c(n1)N(CCCN)CC21CCN(c2ccc(C(F)(F)F)cc2C#N)CC1` [1-54, 2-[1′-(3-aminopropyl)-6′-(2-ethoxypyridin-3-yl)-1′,2′-dihydrospiro[piperidine-4,3′-pyrrolo[2,3-b]pyridin]-1-yl]-5-(trifluoromethyl)benzonitrile] stands below 10 nM; under `CCOc1ncccc1-c1ccc2c(c1)N(CCN)CC21CCN(c2ccc(C(F)(F)F)cc2C#N)CC1` [1-12, 2-[1-(2-aminoethyl)-6-(2-ethoxypyridin-3-yl)-1,2-dihydrospiro[indole-3,4′-piperidin]-1′-yl]-5-(trifluoromethyl)benzonitrile], 10 to 100 nM; under `CCOc1ncccc1-c1ccc2c(c1)N([C@@H]1CCNC1)C(=O)C21CCN(c2ccc(C(F)(F)F)cc2C#N)CC1` [1-18, 2-[6-(2-ethoxypyridin-3-yl)-2-oxo-1-[(3R)-pyrrolidin-3-yl]-1,2-dihydrospiro[indole-3,4′-piperidin]-1′-yl]-5-(trifluoromethyl)benzonitrile], below 10 nM. The same measure for `CCOc1ncccc1-c1ccc2c(c1)N(C(=O)CCN)CC21CCN(c2ccc(F)c(C(F)(F)F)n2)CC1` [1-20, 3-amino-1-[6-(2-ethoxypyridin-3-yl)-1′-[5-fluoro-6-(trifluoromethyl)pyridin-2-yl]-1,2-dihydrospiro[indole-3,4′-piperidin]-1-yl]propan-1-one]: 1000 to 10000 nM. The same measure for `CCOc1ncccc1-c1ccc2c(c1)N([C@H](C)CN)CC21CCN(c2ccc(C(F)(F)F)cc2C#N)CC1` [1-40, 2-{1-[(2R)-1-aminopropan-2-yl]-6-(2-ethoxypyridin-3-yl)-1,2-dihydrospiro[indole-3,4′-piperidin]-1′-yl}-5-(trifluoromethyl)benzonitrile]: below 10 nM; for `CCOc1ncccc1-c1ccc2c(c1)N(C(=O)NC[C@H](C)N)CC21CCN(c2ccc(C(F)(F)F)cc2C#N)CC1` [1-31, N-[(2S)-2-aminopropyl]-1′-[2-cyano-4-(trifluoromethyl)phenyl]-6-(2-ethoxypyridin-3-yl)-1,2-dihydrospiro[indole-3,4′-piperidine]-1-carboxamide]: 10 to 100 nM; for `CCOc1ncccc1-c1ccc2c(n1)N([C@H]1CCNC1)CC21CCN(c2ccc(C(F)(F)F)cc2C#N)CC1` [1-53, 2-[6′-(2-ethoxypyridin-3-yl)-1′-[(3S)-pyrrolidin-3-yl]-1′,2′-dihydrospiro[piperidine-4,3′-pyrrolo[2,3-b]pyridin]-1-yl]-5-(trifluoromethyl)benzonitrile]: 10 to 100 nM. Consider `CCOc1ncccc1-c1ccc2c(c1)N(C(=O)CCN)CC21CCN(c2ccc(C(F)(F)F)cc2Cl)CC1` [1-7, 3-amino-1-{1′-[2-chloro-4-(trifluoromethyl)phenyl]-6-(2-ethoxypyridin-3-yl)-1,2-dihydrospiro[indole-3,4′-piperidin]-1-yl}propan-1-one], for which the Ki was 10 to 100 nM. The same measure for `C[C@@H](N)CN1CC2(CCN(c3ccc(C(F)(F)F)cc3C#N)CC2)c2ccc(-c3ccccc3CO)cc21` [1-42, 2-{1-[(2R)-2-aminopropyl]-6-[2-(hydroxymethyl)phenyl]-1,2-dihydrospiro[indole-3,4′-piperidin]-1′-yl}-5-(trifluoromethyl)benzonitrile]: 10 to 100 nM; for `CCOc1ncccc1-c1ccc2c(c1)N(C(=O)CCN)CC21CCN(c2cc(OC)cc(C(F)(F)F)n2)CC1` [1-36, 3-amino-1-[6-(2-ethoxypyridin-3-yl)-1′-[4-methoxy-6-(trifluoromethyl)pyridin-2-yl]-1,2-dihydrospiro[indole-3,4′-piperidin]-1-yl]propan-1-one]: 1000 to 10000 nM; for `CCOc1ncccc1-c1ccc2c(c1)N(C[C@H](C)N)CC21CCN(c2ccc(C(F)(F)F)cc2C#N)CC1` [1-14, 2-{1-[(2S)-2-aminopropyl]-6-(2-ethoxypyridin-3-yl)-1,2-dihydrospiro[indole-3,4′-piperidin]-1′-yl}-5-(trifluoromethyl)benzonitrile]: 10 to 100 nM. Consider `CCOc1ncccc1-c1ccc2c(c1)N(C(=O)N[C@@H]1CCNC1)CC21CCN(c2ccc(C(F)(F)F)cc2C#N)CC1` [1-32, 1′-[2-cyano-4-(trifluoromethyl)phenyl]-6-(2-ethoxypyridin-3-yl)-N-[(3R)-pyrrolidin-3-yl]-1,2-dihydrospiro[indole-3,4′-piperidine]-1-carboxamide], for which the Ki lay within 10 to 100 nM. The same measure for `CCOc1ncccc1-c1ccc2c(c1)N(C(=O)CCN)CC21CCN(c2ccc(Cl)cc2C#N)CC1` [1-34, 2-[1-(3-aminopropanoyl)-6-(2-ethoxypyridin-3-yl)-1,2-dihydrospiro[indole-3,4′-piperidin]-1′-yl]-5-chlorobenzonitrile]: 10 to 100 nM; for `CCOc1ncccc1-c1ccc2c(c1)N(S(=O)(=O)CCN)CC21CCN(c2ccc(C(F)(F)F)cc2C#N)CC1` [1-37, 2-[1-(2-aminoethanesulfonyl)-6-(2-ethoxypyridin-3-yl)-1,2-dihydrospiro[indole-3,4′-piperidin]-1′-yl]-5-(trifluoromethyl)benzonitrile]: 10 to 100 nM.

With `CCOc1ccc(N2CCC3(CC2)CN(C(=O)CCN)c2cc(-c4cccnc4OCC)ccc23)nc1C(F)(F)F` [1-25, 3-amino-1-{1′-[5-ethoxy-6-(trifluoromethyl)pyridin-2-yl]-6-(2-ethoxypyridin-3-yl)-1,2-dihydrospiro[indole-3,4′-piperidin]-1-yl}propan-1-one], the Ki fell in the range of 1000 to 10000 nM.

`CCOc1ncccc1-c1ccc2c(n1)N(C[C@@H](C)N)C(=O)C21CCN(c2ccc(C(F)(F)F)cc2C#N)CC1` [1-61, 2-{1′-[(2R)-2-aminopropyl]-6′-(2-ethoxypyridin-3-yl)-2′-oxo-1′,2′-dihydrospiro[piperidine-4,3′-pyrrolo[2,3-b]pyridin]-1-yl}-5-(trifluoromethyl)benzonitrile]: the Ki is below 10 nM.
